Measurements taken from patent US7112676B2, “Pyrimido compounds having antiproliferative activity” (Hoffmann-La Roche Inc., priority 2002, dated 2006).

Key:
KDR = target: T1, KDR (Homo sapiens, UniProt P35968); experiment: KDR kinase HTRF assay; assay type: biochemical; conditions: 0.3 mM ATP, read-out: IC50 (μM) - Enzyme Inhibition Assays KDR
T1 construct: EEE-tag
Protocol: (§1) To determine inhibition of KDR, FGFR, EGFR, and PDGFR activity, kinase assays were conducted using an HTRF (Homogeneous Time Resolved Fluorescence) assay. This assay is described in A. J. Kolb et. al., Drug Discovery Today, 1998, 3(7), p 333.
Prior to kinase reaction, recombinant EEE-tagged KDR was activated in the presence of activation buffer (50 mM HEPES, pH 7.4, 1 mM DTT, 10% glycerol, 150 mM NaCl, 0.1 mM EDTA, 26 mM MgCl2, and 4 mM ATP). The enzyme was incubated at 4° C. for 1 hour.
(§2) Kinase activity assays were performed in 96-well polypropylene plates (Falcon) with a total volume of 90 μL in each well. Each well contained 1 μM KDR substrate (Biotin-EEEEYFELVAKKKK), 1 nM activated KDR, and a test compound with one of 8 assay concentrations ranging from 100 μM to […] (1:5 serial dilution). The kinase activity assay was done in the presence of 100 mM HEPES, pH 7.4, 1 mM DTT, 0.1 mM Na2VO4, 25 mM MgCl2, 50 mM NaCl (from KDR stock solution), 1% DMSO (from compound), 0.3 mM ATP (at Km concentration) and 0.02% BSA. The reaction was incubated at 37° C. for 30 minutes. To stop the KDR reaction, 72 μL of reaction mixture was transferred into a STOP plate containing 18 μL of revelation buffer (20 mM EDTA, 50 mM HEPES, pH 7.4, 0.02% BSA, 10 nM Eu-labelled anti-pY antibody (final conc. 2 nM), and 100 nM streptavidin (final conc. 20 nM)). After mixing, 35 μL of solution was transferred into duplicate wells of a 384-well black plate (Costar), and read at 615/665 nm on a Wallac Victor 5 reader.
(§3) Compound IC50 values were determined from duplicate sets of data, and calculated by using Excel and fitting data to equation Y=[(a−b)/{1+(X/c)^d]+b, where a and b are enzyme activity in the presence of no test inhibitor compound and an infinite amount of inhibitor test compound, respectively, c is the IC50 and d is the hill constant of the compound response. The IC50 value is the concentration of test compound that reduces by 50% the enzyme activity under the test conditions described.

FGFR = target: T2, FGFR; experiment: FGFR kinase HTRF assay; assay type: biochemical; conditions: 10 μM ATP, read-out: IC50 (μM) - Enzyme Inhibition Assays FGFR
T2 construct: fused on or other part: GST tag
Protocol: as §1, §2
FGFR, EGFR, and PDGFR activity assays were carried out as described above for the KDR activity assay with the following differences. GST-tagged FGFR enzyme was activated at room temperature for 1 hour in the following activation buffer: 100 mM HEPES, pH 7.4, 50 mM NaCl, 20 mM MgCl2, and 4 mM ATP. The kinase activity assay was performed with 1 μM substrate (Biotin-EEEEYFELV), 1.5 nM activated FGFR, and test compound in the presence of 100 mM HEPES, 1 mM DTT, 0.4 mM MgCl2, 0.4 mM MnCl2, 50 mM NaCl, 1% DMSO, 10 μM ATP (Km=8.5 μM for FGFR), 0.1 mM Na2VO4, and 0.02% BSA, in a total volume of 90 μL. The rest of the assay was performed in the same manner as KDR assay.
as §3

EGFR = EGFR (Homo sapiens, UniProt P00533); experiment: EGFR kinase HTRF assay; assay type: biochemical; conditions: 0.5 μM ATP, read-out: IC50 (μM) - Enzyme Inhibition Assays EGFR
Protocol: as §1, §2
(§4) The EGFR kinase activity assay was performed with 1 μM substrate (Biotin-EEEEYFELV), 1.5 nM EGFR, test compounds, 100 mM HEPES, pH 7.4, 1 mM DTT, 5 mM MgCl2, 2 mM MnCl2, 1% DMSO, 0.5 μM ATP (Km for EGFR), 0.1 mM Na2VO4, and 0.02% BSA. The rest of the assay was performed in the same manner as the KDR assay.
as §3

PDGFR = PDGFR kinase HTRF assay; assay type: biochemical; conditions: 2.3 μM ATP, read-out: IC50 (μM) - Enzyme Inhibition Assays PDGFR
Protocol: as §1, §2
as §4, with “PDGFR” for “EGFR”, “1.0” for “1.5”, “PDGFR,” for “EGFR,”, “2.3” for “0.5”, “PDGFR),” for “EGFR),”
as §3

VEGF-stimulated HUVEC = VEGF-stimulated HUVEC proliferation assay (BrdU); assay type: cell-based; conditions: Homo sapiens, VEGF 20 ng per mL, BrdU labeling, 24 hour exposure, read-out: IC50 (μM) of VEGF and FGF-Stimulated HUVEC Proliferation Assays HUVEC/VEFG
Protocol: (§5) The antiproliferative activity of test compounds of this invention in cell-based assays was evaluated by BrdU assay using the BrdU kit (Roche Biochemicals 1-647-229). Human umbilical vein endothelial cells (HUVEC, Clonetics CC-2519) were cultured in EGM-2 (Clonetics CC-3162) medium and seeded at 10000 cells per well in a volume of 200 μL of EGM-2 (Clonetics CC-3162) media in a 96-well flat bottom plates (Costar 3595) overnight. After 24 hours of growth at 37° C. with 5% CO2, the incubation media was removed slowly by aspiration and the content of each well was washed with 300 μL pre-warmed EBM-2 (Clonetics CC-3156) containing 50 μg per mL of gentamycin and 50 ng per mL of amphotercin-B (Clonetics CC-4083). Subsequently, the remaining media was again aspirated and replaced with 160 μL per well of serum starvation media (EBM-2 supplemented with 1% heat inactivated FBS (Clonetics CC-4102), 50 μg per mL gentamycin and 50 ng per mL of amphotercin-B (Clonetics CC-4083), 10 units per mL of Wyeth-Ayerst heparin (NDC0641-0391-25), and 2 mM L-glutamine (GIBCO 25030-081). After serum starving the cells for 24 hours, 20 μL of test compound at 10× test concentration in serum starvation medium with 2.5% DMSO was added to the appropriate wells. The control wells contained 20 μL of serum starvation medium with 2.5% DMSO. Plates were returned to the incubator for 2 hours. After pre-incubating the cells with the test compounds for 2 hours, 20 μL of growth factors at 10× assay concentration diluted in serum starvation media, FGF at 50 ng per mL, or VEGF (R&D systems 293-VE) at 200 ng per mL were added. The final concentration of FGF in the assay was 5 ng per mL and the final concentration of VEGF in the assays was 20 ng per mL. The growth factor free control wells had 20 μL per well of serum starvation media with the same amount of BSA as the wells with growth factors. The plates were returned to the incubator for an additional 22 hours.
(§6) After 24 hour exposure to the test compounds, the cells were labeled with BrdU (Roche Biochemicals 1-647-229), by adding 20 μL per well of BrdU labeling reagent that has been diluted (1:100) in serum starvation medium. The plates were then returned to the incubator for 4 hours. The labeling medium was removed by draining the medium onto paper towels. The cells were fixed and DNA denatured by adding 200 μL of fixation/denaturation solution to each well and incubating at room temperature for 45 minutes. The fixation/denaturation solution was drained onto paper towels and to each well was added 100 μL of anti-BrdU-POD and the wells were incubated for 2 hours at room temperature. The antibody solution was removed and the wells were each washed 3–4 times with 300 μl PBS. 100 μL of the TMB substrate solution was added to each well and the wells were incubated at room temperature for 5–8 minutes. The reaction was then stopped by adding 100 μL per well of 1 M phosphoric acid. The plates were read at 450 nm with reference wavelength of 650 nm. The percent inhibition for each test compound was calculated by subtracting the absorbency of the blank (no cells) wells from all wells, then subtracting the division of the average absorbency of each test duplicate by the average of the controls from 1. The final product was then multiplied by 100 (% of inhibition=(1−average absorbency of test duplicate/average of control)100). The IC50 value is the concentration of test compound that inhibits by 50% BrdU labeling, and is a measure of inhibition of cell proliferation. The IC50 is determined from the linear regression of a plot of the logarithm of the concentration versus percent inhibition.

FGF-stimulated HUVEC = FGF-stimulated HUVEC proliferation assay (BrdU); assay type: cell-based; conditions: Homo sapiens, FGF 5 ng per mL, BrdU labeling, 24 hour exposure, read-out: IC50 (μM) of VEGF and FGF-Stimulated HUVEC Proliferation Assays HUVEC/bFGFR
Protocol: as §5, §6

T1 sequence (P35968 20-1356, species assumed): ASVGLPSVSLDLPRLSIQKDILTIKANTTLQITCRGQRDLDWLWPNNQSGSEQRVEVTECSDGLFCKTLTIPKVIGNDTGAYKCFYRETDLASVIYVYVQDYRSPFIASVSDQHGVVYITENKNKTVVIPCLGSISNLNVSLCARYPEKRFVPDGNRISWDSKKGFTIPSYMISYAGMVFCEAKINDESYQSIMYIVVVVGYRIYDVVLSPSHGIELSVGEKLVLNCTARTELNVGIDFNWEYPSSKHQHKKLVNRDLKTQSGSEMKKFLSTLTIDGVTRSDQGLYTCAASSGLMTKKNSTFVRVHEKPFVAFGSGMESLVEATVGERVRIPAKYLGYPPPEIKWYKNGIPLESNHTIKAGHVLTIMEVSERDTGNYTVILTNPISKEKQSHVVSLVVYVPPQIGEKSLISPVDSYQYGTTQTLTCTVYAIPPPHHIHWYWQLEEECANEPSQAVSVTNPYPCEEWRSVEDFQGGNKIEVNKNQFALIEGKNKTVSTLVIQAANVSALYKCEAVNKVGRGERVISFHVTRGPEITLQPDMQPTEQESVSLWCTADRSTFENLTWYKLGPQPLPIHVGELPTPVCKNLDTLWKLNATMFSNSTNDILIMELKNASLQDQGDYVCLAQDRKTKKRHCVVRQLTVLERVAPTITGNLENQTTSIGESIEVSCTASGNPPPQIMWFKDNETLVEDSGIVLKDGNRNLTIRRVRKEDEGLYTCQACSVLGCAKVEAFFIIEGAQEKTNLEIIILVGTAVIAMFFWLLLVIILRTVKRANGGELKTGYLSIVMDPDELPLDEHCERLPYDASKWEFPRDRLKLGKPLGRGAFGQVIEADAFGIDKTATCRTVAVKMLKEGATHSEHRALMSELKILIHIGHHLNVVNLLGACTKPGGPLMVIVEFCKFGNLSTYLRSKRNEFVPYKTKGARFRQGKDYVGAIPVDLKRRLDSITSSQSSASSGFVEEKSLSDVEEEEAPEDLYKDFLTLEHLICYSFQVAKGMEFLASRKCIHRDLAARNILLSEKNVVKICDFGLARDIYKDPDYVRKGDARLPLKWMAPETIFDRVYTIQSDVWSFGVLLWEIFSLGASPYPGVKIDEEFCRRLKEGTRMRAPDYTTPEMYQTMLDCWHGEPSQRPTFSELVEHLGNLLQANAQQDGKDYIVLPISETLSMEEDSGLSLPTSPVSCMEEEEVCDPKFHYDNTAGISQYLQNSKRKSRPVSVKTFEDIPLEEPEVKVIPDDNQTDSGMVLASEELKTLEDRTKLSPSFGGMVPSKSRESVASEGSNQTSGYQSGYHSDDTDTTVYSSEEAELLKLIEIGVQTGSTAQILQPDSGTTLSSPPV
EGFR, sequence (P00533 25-1210, species assumed): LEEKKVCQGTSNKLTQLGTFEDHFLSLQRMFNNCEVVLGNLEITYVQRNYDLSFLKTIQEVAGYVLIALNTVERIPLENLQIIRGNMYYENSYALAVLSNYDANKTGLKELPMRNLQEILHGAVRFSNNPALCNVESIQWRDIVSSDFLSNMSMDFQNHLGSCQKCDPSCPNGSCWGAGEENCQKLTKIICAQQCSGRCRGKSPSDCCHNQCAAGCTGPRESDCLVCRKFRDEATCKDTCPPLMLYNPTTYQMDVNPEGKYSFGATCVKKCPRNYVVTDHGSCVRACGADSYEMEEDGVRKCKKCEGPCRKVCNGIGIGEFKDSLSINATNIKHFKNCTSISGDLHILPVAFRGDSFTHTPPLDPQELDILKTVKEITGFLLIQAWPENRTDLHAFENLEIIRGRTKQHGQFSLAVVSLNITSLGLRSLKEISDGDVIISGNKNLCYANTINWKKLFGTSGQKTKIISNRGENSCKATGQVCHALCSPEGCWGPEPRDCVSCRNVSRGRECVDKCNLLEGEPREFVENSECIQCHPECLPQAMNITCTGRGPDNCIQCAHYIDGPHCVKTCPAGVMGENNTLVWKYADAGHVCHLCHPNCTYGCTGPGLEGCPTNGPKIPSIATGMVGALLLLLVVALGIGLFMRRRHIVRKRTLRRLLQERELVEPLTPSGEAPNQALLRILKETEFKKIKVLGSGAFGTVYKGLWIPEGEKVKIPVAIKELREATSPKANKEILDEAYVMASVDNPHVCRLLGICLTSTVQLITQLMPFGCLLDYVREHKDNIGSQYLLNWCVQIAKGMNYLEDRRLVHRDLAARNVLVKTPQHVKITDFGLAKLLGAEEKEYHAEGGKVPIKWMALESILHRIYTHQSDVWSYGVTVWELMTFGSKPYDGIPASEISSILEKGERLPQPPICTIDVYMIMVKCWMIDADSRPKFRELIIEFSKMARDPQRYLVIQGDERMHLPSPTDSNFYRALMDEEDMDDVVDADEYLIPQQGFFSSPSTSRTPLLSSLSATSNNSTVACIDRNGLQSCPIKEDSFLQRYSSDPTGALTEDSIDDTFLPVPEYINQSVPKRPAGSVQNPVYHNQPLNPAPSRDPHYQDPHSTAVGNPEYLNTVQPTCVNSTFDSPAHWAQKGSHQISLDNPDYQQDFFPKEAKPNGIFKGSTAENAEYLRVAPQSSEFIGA

| Structure (SMILES) | melting point [°C] | IC50 (KDR) [µM] | IC50 (FGFR) [µM] | IC50 (EGFR) [µM] | IC50 (PDGFR) [µM] | IC50 (VEGF-stimulated HUVEC) [µM] | IC50 (FGF-stimulated HUVEC) [µM] |
| --- | --- | --- | --- | --- | --- | --- | --- |
| COc1ccc(N2C(=O)N([C@@H](C)CO)c3nc(Nc4ccccc4)ncc3C2C)cc1 (stereo partly drawn) [Example 13d, 1-(2-Hydroxy-1-(S)-methyl-ethyl)-3-(4-methoxy-phenyl)-4-methyl-7-phenylamino-3,4-dihydro-1H-pyrimido[4,5-d]pyrimidin-2-one] | 165 to 180 |  |  |  |  |  |  |
| COc1ccc(Cl)c(N2C(=O)N(c3ccccc3)c3nc(Nc4ccccc4)ncc3C2C)c1 (racemic) [Example 12c, (±)-3-(2-Chloro-5-methoxy-phenyl)-4-methyl-1-phenyl-7-phenylamino-3,4-dihydro-1H-pyrimido[4,5-d]pyrimidin-2-one] |  | < 10 | < 10 | < 10 | < 10 |  |  |
| COc1ccc(N2C(=O)N(c3ccccc3)c3nc(Nc4ccccc4)ncc3C2C(C)C)cc1 (racemic) [Example 11e, (±)-4-Isopropyl-3-(4-methoxy-phenyl)-1-phenyl-7-phenylamino-3,4-dihydro-1H-pyrimido[4,5-d]pyrimidin-2-one] | 229 to 235 | > 10 | > 10 | < 10 | > 10 |  |  |
| CCC1c2cnc(Nc3ccccc3)nc2N(c2ccccc2)C(=O)N1c1ccc(OC)cc1 (racemic) [Example 7e, (±)-4-Ethyl-3-(4-methoxy-phenyl)-1-phenyl-7-phenylamino-3,4-dihydro-1H-pyrimido[4,5d]pyrimidin-2-one] | 172 to 176 | < 10 | < 10 | < 10 | < 10 |  |  |
| COc1ccc(N2C(=O)N(c3ccccc3)c3nc(Nc4ccccc4)ncc3[C@H]2C)cc1 (single isomer, unassigned) [Example 2] | 218 to 233 | < 10 | < 10 | < 10 | < 10 |  |  |

More lines, main results first:

| melting point [°C] | IC50 (KDR) [µM] | IC50 (FGFR) [µM] | IC50 (EGFR) [µM] | IC50 (PDGFR) [µM] | Structure (SMILES) | IC50 (VEGF-stimulated HUVEC) [µM] | IC50 (FGF-stimulated HUVEC) [µM] |
| --- | --- | --- | --- | --- | --- | --- | --- |
|  | < 10 | < 10 | < 10 | < 10 | COc1ccc(N2C(=O)N(c3ccccc3)c3nc(N(C(C)=O)c4ccccc4)ncc3C2C)cc1 (racemic) [Example 19, (±)-N-[6-(4-Methoxy-phenyl)-5-methyl-7-oxo-8-phenyl-5,6,7,8-tetrahydro-pyrimido[4,5-d]pyrimidin-2-yl]-N-phenyl-acetamide] | < 10 | < 10 |
|  | < 10 | < 10 | < 10 | < 10 | COc1ccc(N2C(=O)N([C@H]3CC[C@H](O)CC3)c3nc(Nc4ccccc4)ncc3C2C)cc1 (mixture of isomers) [Example 20b, (±)-1-(trans-4-Hydroxy-cyclohexyl)-3-(4-methoxy-phenyl)-4-methyl-7-phenylamino-3,4-dihydro-1H-pyrimido[4,5-d]pyrimidin-2-one] | < 10 | < 10 |
| 158 to 162 | < 10 | < 10 | < 10 | < 10 | COc1ccc(N2C(=O)N([C@H](C)CO)c3nc(Nc4ccccc4)ncc3[C@H]2C)cc1 [Example 14f, 1-(2-Hydroxy-1-(R)-methyl-ethyl)-3-(4-methoxy-phenyl)-4-(R)-methyl-7-phenylamino-3,4-dihydro-1H-pyrimido[4,5-d]pyrimidin-2-one] |  |  |
|  | < 10 | < 10 | < 10 | < 10 | COc1ccc(N2C(=O)N([C@@H](C)c3ccccc3)c3nc(Nc4ccccc4)ncc3C2C)cc1 (stereo partly drawn) [Example 18, 3-(4-Methoxy-phenyl)-4-methyl-7-phenylamino-1-[1-(S)-phenyl-ethyl]-3,4-dihydro-1H-pyrimido[4,5-d]pyrimidin-2-one] | < 10 | < 10 |
